Laboratory results: patent US20240400620A1, “Compositions Containing Coronavirus Proteins and Epitopes” (priority 2021, published 2024)
Read-outs that look alike come from different tables or passages of the source. No end group written: not given here.

What was measured:
[1] = system: splenocytes or lung leukocytes (IFNγ-producing peptide-specific T cells) from DNA-vaccinated HLA-B*0702 mice; assay: IFNγ-ELISpot, cells of DNA-vaccinated HLA-B*0702 Ifnar1^−/− mice stimulated with SARS-CoV-2 peptides; assay type: cell-based; conditions: 20 h; for IFNγ secretion (ELISpot): lung leukocytes, 10 μg/mL peptide; for IFNγ production (ELISpot) compared with unstimulated control cells: splenocytes, day 21, 10 μg/mL peptide
[2] = system: activated (CD44+ CD62L−) CD8+ T cells from B.1.351-infected HLA-B*0702 Ifnar1^−/− mice; assay type: cell-based
[3] = system: activated CD4+ T cells from OC43-infected HLA-DRB1*0101 Ifnar1^−/− mice; assay type: cell-based; conditions: for expansion of peptide-reactive IFNγ+ CD4+ T cells: day 8 post-OC43 infection
[4] = system: splenocytes or lung leukocytes from DNA-vaccinated HLA-DRB1*0101 mice; assay type: cell-based; conditions: for stimulation of IFNγ production (ELISpot): splenocytes
[5] = system: activated CD8+ T cells from OC43-infected HLA-B*0702 Ifnar1^−/− mice; assay type: cell-based; conditions: splenocytes
SARS-CoV-2 B.1.351 = conditions: mouse, in vivo
[6] = spleen, day 16 post-OC43 infection

APHGVVFL [S1056-1063]
IFNγ secretion (ELISpot) [1]: significant IFNγ secretion | IFNγ production (ELISpot) compared with unstimulated control cells [1]: significantly higher levels of IFNγ | frequencies of activated IFNγ+, IFNγ+/TNF+, IFNγ+/CD107a+ and IFNγ+/TNF+/IL-2+ CD8+ T cells compared with unstimulated cultures [2]: no significant expansion

FARTRSMWSF (misc_feature - Membrane; Severe acute respiratory syndrome-related coronavirus) [M103-112]
frequencies of activated IFNγ+, IFNγ+/TNF+, IFNγ+/CD107a+ and IFNγ+/TNF+/IL-2+ CD8+ T cells compared with unstimulated cultures [2]: no significant expansion

FPRGQGVPIN (misc_feature - Nucleoprotein; Severe acute respiratory syndrome-related coronavirus) [N66-75]
IFNγ secretion (ELISpot) [1]: significant IFNγ secretion | IFNγ production (ELISpot) compared with unstimulated control cells [1]: significantly higher levels of IFNγ

FPRGQGVPINT (misc_feature - Nucleoprotein; Severe acute respiratory syndrome-related coronavirus) [N66-76]
IFNγ secretion (ELISpot) [1]: significant IFNγ secretion | IFNγ production (ELISpot) compared with unstimulated control cells [1]: significantly higher levels of IFNγ | frequencies of activated IFNγ+, IFNγ+/TNF+, IFNγ+/CD107a+ and IFNγ+/TNF+/IL-2+ CD8+ T cells compared with unstimulated cultures [2]: no significant expansion

GSLVVRCSFYEDFLE [ORF896-110]
frequencies of cross-reactive IFNγ+ CD4+ T cells [3, 6]: significantly increased

KFPRGQGVPI (misc_feature - Nucleoprotein; Severe acute respiratory syndrome-related coronavirus) [N65-74]
IFNγ secretion (ELISpot) [1]: significant IFNγ secretion | IFNγ production (ELISpot) compared with unstimulated control cells [1]: significantly higher levels of IFNγ

LKFPRGQGVPI (misc_feature - Nucleoprotein; Severe acute respiratory syndrome-related coronavirus) [N64-74]
IFNγ secretion (ELISpot) [1]: significant IFNγ secretion | IFNγ production (ELISpot) compared with unstimulated control cells [1]: significantly higher levels of IFNγ

LNTLVKQLSSNFGAI [S959-973]
stimulation of IFNγ production (ELISpot) [4]: significant stimulation of IFNγ production

LPKEITVAT (misc_feature - Membrane; Severe acute respiratory syndrome-related coronavirus) [M164-172]
frequencies of activated IFNγ+, IFNγ+/TNF+, IFNγ+/CD107a+ and IFNγ+/TNF+/IL-2+ CD8+ T cells compared with unstimulated cultures [2]: no significant expansion

LPKGIMMNV (misc_feature - ORF1ab; Severe acute respiratory syndrome-related coronavirus) [ORF1ab6834-6844]
frequencies of activated IFNγ+ and IFNγ/TNF+ CD8+ T cells ([5]; day 8 post-OC43 infection): increase was significant

LSPRWYFYYL [N104-113]
frequencies of N104-113-reactive polyfunctional (IFNγ+/TNF+, IFNγ+/TNF+/IL-2+) and cytotoxic multifunctional (IFNγ+/CD107a+) CD8+ T cells vs mock-immunized (SARS-CoV-2 B.1.351): significantly increased

LSPRWYFYYLGTGPEAGL (misc_feature - Nucleocapsid; Severe acute respiratory syndrome-related coronavirus) [N104-121]
expansion of peptide-reactive IFNγ+ CD8+ T cells ([5]; day 16 post-OC43 infection): 9 fold | expansion of peptide-reactive IFNγ+/TNF+ CD8+ T cells ([5]; day 16 post-OC43 infection): 12 fold

LYLYALVYFLQSINF [ORF3a106-120]
IL-2 production by CD4+ T cells ([3]; day 16 post-OC43 infection): stimulated IL-2 production

PKEITVATSRTLSYY (misc_feature - Membrane; Severe acute respiratory syndrome-related coronavirus) [M165-179]
stimulation of IFNγ production (ELISpot) [4]: significant stimulation of IFNγ production

QSINFVRIIMRLWLC [ORF3a116-130]
expansion of peptide-reactive IFNγ+ CD4+ T cells ([3]; spleen): statistically significant

RCSFYEDFLEYHDVR [ORF8101-115]
frequencies of cross-reactive IFNγ+ CD4+ T cells [3]: significantly increased

SPRRARSV (misc_feature - Spike; Severe acute respiratory syndrome-related coronavirus) [S680-687]
IFNγ production (ELISpot) compared with unstimulated control cells [1]: significantly higher levels of IFNγ

SPRRARSVA (misc_feature - Spike; Severe acute respiratory syndrome-related coronavirus) [S680-688]
IFNγ production (ELISpot) compared with unstimulated control cells [1]: significantly higher levels of IFNγ

SPRWYFYYLG (misc_feature - Nucleoprotein; Severe acute respiratory syndrome-related coronavirus) [N105-114]
IFNγ production (ELISpot) compared with unstimulated control cells [1]: significantly higher levels of IFNγ

TNSPRRARSVA (misc_feature - Spike; Severe acute respiratory syndrome-related coronavirus) [S678-688]
IFNγ production (ELISpot) compared with unstimulated control cells [1]: significantly higher levels of IFNγ | frequencies of activated IFNγ+, IFNγ+/TNF+, IFNγ+/CD107a+ and IFNγ+/TNF+/IL-2+ CD8+ T cells compared with unstimulated cultures [2]: no significant expansion

TSNFRVQPTESIVRF [S315-329]
stimulation of IFNγ response (ELISpot) ([4]; lung leukocytes): significantly stimulated a response | stimulation of IFNγ production (ELISpot) [4]: significant stimulation of IFNγ production | IFNγ response (ELISpot) ([4]; splenocytes and lung leukocytes): capable of stimulating both splenocytes and lung leukocytes

VLAAVYRINWITGGI (misc_feature - Membrane; Severe acute respiratory syndrome-related coronavirus) [M66-80]
expansion of peptide-reactive IFNγ+ CD4+ T cells ([3]; spleen): statistically significant

VPVAIHADQL (misc_feature - Spike; Severe acute respiratory syndrome-related coronavirus) [S620-629]
IFNγ production (ELISpot) compared with unstimulated control cells [1]: significantly higher levels of IFNγ

YYRRATRRIRGGDGK (misc_feature - Nucleoprotein; Severe acute respiratory syndrome-related coronavirus) [N86-100]
IL-2 production by CD4+ T cells ([3]; day 16 post-OC43 infection): stimulated IL-2 production | expansion of polyfunctional cross-reactive IFNγ+/TNF+ CD4+ T cells [3, 6]: significantly expanded
